# Test results taken from US20220248732A1, “Saltiness-Perception Enhancing Compounds” (Frito-Lay North America, Inc., priority 2021, published 2022).
# How the values were obtained:
# [1] = test system: panelists (saltiness intensity); assay: Descriptive analysis of saltiness intensity of aqueous salt solutions (sample sets 1 and 2), 15-point scale; format: in vivo, human; conditions: for saltiness enhancement in salt solutions: 1x dosage level, 3.52 g NaCl/L (20% NaCl reduction), Tukey HSD alpha 0.05
# Source text: (§1) The terms “saltiness,” “saltiness intensity,” and “mean saltiness intensity” may refer to the saltiness intensity of a compound, a composition, and/or a food product determined by an individual tasting a sample of the compound, the composition, and/or the food product and rating its saltiness intensity using a designated scale, such as the 15-point saltiness scale described herein.
# (§2) Next, the panelists conducted descriptive analysis to evaluate the saltiness intensity of the following four sample sets.
# (1) 2 mL samples of aqueous salt solutions with a 20% reduction in NaCl (3.52 g NaCl/L H2O) and 40% reduction in NaCl (2.64 NaCl/L H2O), relative to 2 mL of a control sample having a simulated saltiness intensity of traditional potato chips (4.40 g NaCl/L H2O);
# (2) 2 mL samples of pH 6.2-6.5 aqueous salt solutions at the 20% NaCl reduction level (3.52 g NaCl/L H2O) with the addition of individual ones of the identified saltiness-enhancing compounds, where the compound dosage was at the endogenous level of the analyzed unsalted potato chips (1×) and at three times the endogenous level of the potato chips (3×);
# (§3) Panelist evaluation of sample set (1): Twelve panelists rated saltiness intensity using a 15-point scale, in duplicate. The saltiness references provided were 0 points (water), 2.5 points (0.2% NaCl), 5 points (0.35% NaCl), and 8.5 points (0.5% NaCl).
# as §3, with “(2): Eight” for “(1): Twelve”, “NaCl). The sensory dosage concentrations of the saltiness-enhancing compounds of the samples of sample set (2) is shown below in Table 3.” for “NaCl).”
# [2] = test system: panelists (saltiness intensity); assay: Descriptive analysis of saltiness intensity of topically coated potato chip samples (sample sets 3 and 4), 15-point scale; format: in vivo, human; conditions: for salt-enhancing activity on potato chips: applied topically (as mixture) to 20% and 40% salt reduced potato chips at the 1x dosage
# Source text: as §1, §2
# (3) 1 g potato chip samples with 20% reduction in NaCl (12.3 g NaCl/kg) and 40% reductions in NaCl (9.2 g NaCl/kg), relative to traditional potato chips (15.4 g NaCl/kg); and
# (4) 1 g potato chip samples at 20% and 40% salt reductions (relative to standard potato chips) with the addition of a mixture of the identified saltiness-enhancing compounds topically applied to potato chips at the endogenous level of the analyzed unsalted potato chips (1×).
# Panelist evaluation of sample set (3): Twelve panelists rated saltiness intensity using a 15-point scale, in duplicate. The saltiness references provided were 0 points (water), 2.5 points (0.2% NaCl), 5 points (0.35% NaCl), and 8.5 points (0.5% NaCl).
# Panelist evaluation of sample set (4): Nine panelists rated saltiness intensity using a 15-point scale, in duplicate. The saltiness references provided were 0 points (water), 2.5 points (0.2% NaCl), 5 points (0.35% NaCl), and 8.5 points (0.5% NaCl). […] Thus, application of one or more of the identified saltiness-perception enhancing compounds to a food product may enable a reduction of up to about 40 wt % of the amount of salt applied to a food product while eliminating or attenuating the concomitant reduction in saltiness that would otherwise occur.
compound,measurement,setting,value
"O=C(O)c1cc(O[C@@H]2OC[C@@H](O)[C@H](O)[C@H]2O)ccc1O [GAX, Gentisic acid 5-O-β-D xylopyranoside]",saltiness enhancement in salt solutions,[1],significant saltiness enhancement
same,Mean Saltiness Intensity,"[1]; 3.52 g NaCl + 0.44 mg GAX per L water (1x), pH 6.2-6.5, 15-point scale, eight panelists, Tukey group a (NaCl alone 5.0 b)",6.0 a
same,Mean Saltiness Intensity,"[1]; 3.52 g NaCl + 1.32 mg GAX per L water (3x), pH 6.2-6.5, 15-point scale, eight panelists, Tukey group ab (NaCl alone 5.0 b)",5.4 ab
same,salt-enhancing activity on potato chips,[2],salt-enhancing activity
"O=C(CCc1ccc(O)c(O)c1)NCCCNCCCCNCCCNC(=O)CCc1ccc(O)c(O)c1 [KA, Kukoamine A]",saltiness enhancement in salt solutions,[1],significant saltiness enhancement
same,Mean Saltiness Intensity,"[1]; 3.52 g NaCl + 1.57 mg KA per L water (1x), pH 6.2-6.5, 15-point scale, eight panelists, Tukey group a (NaCl alone 5.1 b)",5.9 a
same,Mean Saltiness Intensity,"[1]; 3.52 g NaCl + 4.70 mg KA per L water (3x), pH 6.2-6.5, 15-point scale, eight panelists, Tukey group ab (NaCl alone 5.1 b)",5.6 ab
same,salt-enhancing activity on potato chips,[2],salt-enhancing activity
"N[C@@H](Cc1c[nH]c2ccccc12)C(=O)O [L-Trp, L-tryptophan]",Mean Saltiness Intensity,"[1]; 3.52 g NaCl + 31.66 mg L-Trp per L water (1x), pH 6.2-6.5, 15-point scale, eight panelists, Tukey group a (NaCl alone 5.1 b)",5.7 a
same,Mean Saltiness Intensity,"[1]; 3.52 g NaCl + 94.98 mg L-Trp per L water (3x), pH 6.2-6.5, 15-point scale, eight panelists, Tukey group a (NaCl alone 5.1 b)",5.8 a
same,salt-enhancing activity on potato chips,[2],salt-enhancing activity
"[Cl-].[Na+] [NaCl, sodium chloride]",Mean Saltiness Intensity,"[1]; 2.64 g NaCl per L water, 40% reduced salt, 15-point scale, twelve panelists, Tukey group C",4.4 C
same,Mean Saltiness Intensity,"[1]; 3.52 g NaCl per L water alone, control of GAX sample set, 15-point scale, eight panelists, Tukey group b",5.0 b
same,Mean Saltiness Intensity,"[1]; 3.52 g NaCl per L water alone, control of KA sample set, 15-point scale, eight panelists, Tukey group b",5.1 b
same,Mean Saltiness Intensity,"[1]; 3.52 g NaCl per L water alone, control of L-Trp sample set, 15-point scale, eight panelists, Tukey group b",5.1 b
same,Mean Saltiness Intensity,"[1]; 3.52 g NaCl per L water, 20% reduced salt, 15-point scale, twelve panelists, Tukey group B",5.4 B
same,Mean Saltiness Intensity,"[1]; 4.40 g NaCl per L water (control), 15-point scale, twelve panelists, Tukey group A",7.2 A
same,Mean Saltiness Intensity,"[2]; 9.2 g/kg NaCl on potato chips alone, 40% salt reduction sample comparison, nine panelists, Tukey group c",4.2 c
same,Mean Saltiness Intensity,"[2]; 12.3 g NaCl per Kg potato chips alone, 20% salt reduction sample comparison, nine panelists, Tukey group b",5.0 b
same,Mean Saltiness Intensity,"[2]; 15.4 g NaCl (full salt) per Kg potato chips, 20% salt reduction sample comparison, nine panelists, Tukey group a",6.2 a
same,Mean Saltiness Intensity,"[2]; 15.4 g NaCl (full salt) per Kg potato chips, 40% salt reduction sample comparison, nine panelists, Tukey group a",6.2 a
same,Mean Saltiness Intensity,"[2]; topical coating 9.2 g NaCl per Kg potato chips, 40% reduced salt, 15-point scale, twelve panelists, Tukey group C",4.2 C
same,Mean Saltiness Intensity,"[2]; topical coating 12.3 g NaCl per Kg potato chips, 20% reduced salt, 15-point scale, twelve panelists, Tukey group B",5.3 B
same,Mean Saltiness Intensity,"[2]; topical coating 15.4 g NaCl per Kg potato chips (traditional), 15-point scale, twelve panelists, Tukey group A",6.1 A
